A word on the residual activity: it is the signal under treatment as a percentage of the control signal.

Experiment [1] concerns the target Autotaxin (Homo sapiens) (UniProt Q13822). Put plainly: Inhibition of human recombinant ATX at 1 uM after 16 hrs; values are per cent of control.
Experiment [2] shares this target. The experiment in a line: Inhibition of human recombinant ATX at 10 uM after 16 hrs; values are per cent of control.
Experiment [3] has the same target. Put plainly: Inhibition of human recombinant ATX at 100 uM after 16 hrs; values are per cent of control.

As to `CCCCCCCCCCCCCCCC(=O)N[C@@H](Cc1ccc(OCc2ccccc2)cc1)C(O)CP(=O)(O)O` (single isomer, unassigned; diastereomer a), the residual activity in experiment [1] amounted to 97%; in experiment [2], 77%; in experiment [3], 68%.

Take `CCCCCCCCCCCCCCCC(=O)N[C@@H](Cc1ccc(OCc2ccccn2)cc1)C(O)CP(=O)(O)O` (single isomer, unassigned; diastereomer a): the residual activity was determined as 104% in experiment [1], 81% in experiment [2] and 52% in experiment [3].

As for `CCCCCCCCCCCCCCCC(=O)N[C@H](Cc1ccc(OC)cc1)C(O)CP(=O)(O)O` (single isomer, unassigned; diastereomer a), the figures for the residual activity in experiment [1], in experiment [2] and in experiment [3] were 100%, 78% and 57%, respectively.

Turning to `CCCCCCCCCCCCCCCC(=O)N[C@H](Cc1ccc(OCc2ccccc2)cc1)C(O)CP(=O)(O)O` (single isomer, unassigned; diastereomer a), the residual activity in experiment [1] came out at 83%; in experiment [2], 82%; in experiment [3], 83%.

Take `CCCCCCCCCCCCCCCC(=O)N[C@H](Cc1ccc(OCc2ncc(C)c(OC)c2C)cc1)C(O)CP(=O)(O)O` (single isomer, unassigned; diastereomer a): the residual activity in experiment [1] worked out at 108%; in experiment [2], 95%; in experiment [3] it was 63%.

As for `CCCCCCCCCCCCCCCC(=O)N[C@@H](Cc1ccc(OCC2CCCCC2)cc1)C(O)CP(=O)(O)O` (single isomer, unassigned; diastereomer b), the residual activity in experiment [1], in experiment [2] and in experiment [3] was 80% in each case.

For `CCCCCCCCCCCCCCCC(=O)N[C@@H](Cc1ccc(OCCC)cc1)C(O)CP(=O)(O)O` (single isomer, unassigned; diastereomer b), the residual activity in experiment [1] was determined as 100%; in experiment [2], 100%; in experiment [3] it was 83%.

Regarding `CCCCCCCCCCCCCCCC(=O)N[C@@H](Cc1ccc(OCCCCC)cc1)C(O)CP(=O)(O)O` (single isomer, unassigned; diastereomer b), the residual activity turned out to be 94% in experiment [1], 90% in experiment [2] and 70% in experiment [3].

Take `CCCCCCCCCCCCCCCC(=O)N[C@@H](Cc1ccc(OCc2cc(OCC(F)(F)F)ccn2)cc1)C(O)CP(=O)(O)O` (single isomer, unassigned; diastereomer b): the residual activity was 103% in experiment [1], 83% in experiment [2] and 56% in experiment [3].

Turning to `CCCCCCCCCCCCCCCC(=O)N[C@@H](Cc1ccc(OCc2ccccc2)cc1)C(O)CP(=O)(O)O` (single isomer, unassigned; diastereomer b), the residual activity amounted to 76% in experiment [1], 83% in experiment [2] and 78% in experiment [3].

On to `CCCCCCCCCCCCCCCC(=O)N[C@H](Cc1ccc(OCCC)cc1)C(O)CP(=O)(O)O` (single isomer, unassigned; diastereomer b), for which the residual activity came to 108% in experiment [1], 108% in experiment [2] and 90% in experiment [3].

`CCCCCCCCCCCCCCCC(=O)N[C@H](Cc1ccc(OCCCCC)cc1)C(O)CP(=O)(O)O` (single isomer, unassigned; diastereomer b): the residual activity in experiment [1] was 86%; in experiment [2], 82%; in experiment [3], 70%.

On to `CCCCCCCCCCCCCCCC(=O)N[C@H](Cc1ccc(OCc2ccccc2)cc1)C(O)CP(=O)(O)O` (single isomer, unassigned; diastereomer b), for which the residual activity in experiment [1] worked out at 80%; in experiment [2], 81%; in experiment [3] it was 83%.

With `CCCCCCCCCCCCCCCC(=O)N[C@H](Cc1ccc(OCc2ccccn2)cc1)C(O)CP(=O)(O)O` (single isomer, unassigned; diastereomer b), the residual activity in experiment [1] came to 92%; in experiment [2], 78%; in experiment [3], 69%.

For the compound `CCCCCCCCCCCCCCCC(=O)N[C@H](Cc1ccc(OCc2ncc(C)c(OC)c2C)cc1)C(O)CP(=O)(O)O` (single isomer, unassigned; diastereomer b), the values for the residual activity in experiment [1], in experiment [2] and in experiment [3] were 69%, 64% and 47%, respectively.

With `CCCCCCCCCCCCCCCC(=O)N[C@H](Cc1ccc(OCCC)cc1)C(O)CP(=O)(O)O` (stereo in doubt), the residual activity in experiment [1] is 80%; in experiment [2], 79%; in experiment [3], 72%.

As for `CCCCCCCCCCCCCCCC(=O)N[C@@H](Cc1ccc(OCc2cc(OCC(F)(F)F)ccn2)cc1)C(O)CP(=O)(O)O` (stereo in doubt; f3), the residual activity was 92% in experiment [1], 80% in experiment [2] and 32% in experiment [3].

For the compound `CCCCCCCCCCCCCCCC(=O)N[C@H](Cc1ccc(OCc2ccccn2)cc1)C(O)CP(=O)(O)O` (stereo in doubt; f9), the residual activity in experiment [1] stood at 103%; in experiment [2] it was 76%; in experiment [3], 60%.

With `CCCCCCCCCCCCCCCC(=O)N[C@@H](Cc1ccc(OCc2ncc(C)c(OC)c2C)cc1)C(O)CP(=O)(O)O` (stereo in doubt; f17), the residual activity in experiment [1] was found to be 27%; in experiment [2], 13%; in experiment [3] it was 6%.

In the case of `CCCCCCCCCCCCCCCC(=O)N[C@@H](Cc1ccc(OCc2ncc(C)c(OC)c2C)cc1)C(O)CP(=O)(O)O` (stereo in doubt; f18), the residual activity worked out at 63% in experiment [1], 21% in experiment [2] and 8% in experiment [3].

In the case of `CCCCCCCCCCCCCCCC(=O)N[C@H](Cc1ccc(OC)cc1)C(O)CP(=O)(O)O` (stereo in doubt; f20), the residual activity stood at 95% in experiment [1], 84% in experiment [2] and 82% in experiment [3].

For `CCCCCCCCCCCCCCCC(=O)N[C@@H](Cc1ccc(OC)cc1)C(O)CP(=O)(O)O` (stereo in doubt; f22), the residual activity in experiment [1] was 84%; in experiment [2], 80%; in experiment [3], 69%.

As for `CCCCCCCCCCCCCCCC(=O)N[C@@H](Cc1ccc(OCCC(C)C)cc1)C(O)CP(=O)(O)O` (stereo in doubt; f33), the residual activity turned out to be 104% in experiment [1], 104% in experiment [2] and 82% in experiment [3].

As for `CCCCCCCCCCCCCCCC(=O)N[C@@H](Cc1ccc(OCCC(C)C)cc1)C(O)CP(=O)(O)O` (stereo in doubt; f34), the residual activity in experiment [1] came to 106%; in experiment [2], 101%; in experiment [3], 91%.

For `CCCCCCCCCCCCCCCCCC(=O)N[C@@H](Cc1ccc(OCc2ncc(C)c(OC)c2C)cc1)C(O)CP(=O)(O)O` (stereo in doubt; f39), the residual activity amounted to 101% in experiment [1], 91% in experiment [2] and 81% in experiment [3].

With `CCCCCCCC/C=C/CCCCCCCC(=O)N[C@@H](Cc1ccc(OCc2ncc(C)c(OC)c2C)cc1)C(O)CP(=O)(O)O` (stereo in doubt; f42), the residual activity stood at 77% in experiment [1], 68% in experiment [2] and 58% in experiment [3].

(Values after ChEMBL document CHEMBL1144604, “Synthesis and biological evaluation of phosphonate derivatives as autotaxin (ATX) inhibitors” (Bioorg Med Chem Lett, 2007).)
